Laboratory results from US7288258B2, “Polyepitopic protein fragments of the E6 and E7 proteins of HPV, their production and their use particularly in vaccination” (Peptide Immune Ligands, priority 1999, dated 2007).

Experiments:
Assay in all cases: association of peptide with HLA molecules and stability of the complex
Format in all cases: binding, human
Settings in all cases: stable complex: peptide remains bound for at least about 3 hours at 37° C.
[1] = tested on: HLA molecules of the A1 type
[2] = tested on: HLA molecules of the B18 type
From the text: (§1) The different epitopes of the polyepitopic region of the predetermined protein, and delimiting the epitopic protein fragments, are preferably selected from the peptides; • binding to a predetermined molecule of MCH, particularly to a molecule of the predetermined HLA type, and this from concentrations of about 10^−6 M to about 10^−10 M in peptide for concentrations of about 10^−7 M of HLA molecules, particularly under the conditions described hereafter, • and forming a stable complex with said MCH molecule, namely particularly a complex in which said peptide remains bound to said molecule for at least about 3 hours at 37° C.
(§2) By way of illustration, the above-mentioned epitopes of the invention are selected from among the peptides adapted: • on the one hand of associating with the molecules of MCH, particularly by using the following method: • incubation (particularly for about 2 hours at 25° C., then about 15 hours at 4° C.) of the peptide in the presence of MCH molecules, from the lysis of human or animal cells, or purified particularly by affinity chromatography from human or animal cell lines, • trapping complexes formed during the preceding step on a solid support covered with a first antibody, particularly monoclonal, recognizing specifically the CMH molecules in their configuration dependent on their connection to said peptide, • addition to the preceding solid support of a second marked antibody, particularly by coupling to a radioactive, enzymatic or fluorescent marker, said marked antibody recognizing specifically either the long chains of MCH in their configuration dependent on their connection to the peptide, or the short chain of MCH or the β2-microglobulin binding specifically to the different long chains of the MCH in their above-mentioned configuration, • detection, after rinsing of the solid support, of the possible presence of the second marked antibody remaining fixed on the solid support, signifying an association effect between the molecules of MCH and the peptide studied, • and, on the other hand, forming a complex with said MCH molecules, whose stability can be evaluated by the use of a method of following according to time the connection established between the peptide and the MCH molecules, this method being preferably carried out according to a protocol identical to the preceding method, but in which the incubation step of the peptide in the presence of MCH molecules on the solid support covered with said first antibody, is preceded by a preliminary step of eliminating the free peptide adapted that may be present in the reaction medium, particularly by washing the solid support, said incubation step being carried out (preferably at a temperature of 37° C.) for variable times of 1 hours, 3 hours, 5 hours, 24 hours and 48 hours.
(§3) As mentioned above, the epitopes of the invention should be recognized by the T cells in association with the MCH molecules and associate with these latter, particularly in the framework of the practice of the recognition test described above. This association can be weak (detectable at concentrations of peptide analogs of the order of 10^−4 to 10^−5 M), intermediate (detectable at concentrations of peptide analogs of the order of 10^−6 to 10^−7 M), or strong (detectable at concentrations of peptide analogs of the order of 10^−8 to 10^−9 M). The peptides associated with the MCH molecules in the scope of the present invention are preferably adapted to bond during at least about 3 hours, to said MCH molecules.

[3] = tested on: HLA molecules of the B62 type
From the text: as §1, §2, §3

[4] = tested on: HLA molecules of the B35 type
From the text: as §1, §2, §3

[5] = tested on: HLA molecules of the B51 type
From the text: as §1, §2, §3

[6] = tested on: HLA molecules of the B8 type
From the text: as §1, §2, §3

Sequence | binding stably to HLA molecules of the A1 type [1] | binding stably to HLA molecules of the B18 type [2] | binding stably to HLA molecules of the B62 type [3] | further results
QAEPDRAHY (Human Papillomavirus) | binding stably | binding stably | – | –
TAKSVTCTY (listed as Homo sapiens) | – | – | binding stably | –
QPETTDLYCY (Human Papillomavirus) | binding stably | binding stably | – | –
ISEYRHYCY (Human Papillomavirus) | binding stably | binding stably | – | –
LQPETTDLY (Human Papillomavirus) | – | – | binding stably | –
RVRAMAIY (listed as Homo sapiens) | – | – | binding stably | –
NLLGRNSF (listed as Homo sapiens) | – | – | binding stably | –
CPEEKQRHL (Human Papillomavirus) | – | binding stably | – | binding stably to HLA molecules of the B35 type [4]: binding stably; binding stably to HLA molecules of the B51 type [5]: binding stably; binding stably to HLA molecules of the B8 type [6]: binding stably
